Like-named read-outs stand apart in the source and are kept apart here.
Assays:
MCR-1 = biological target: T1, MCR-1 (Homo sapiens, UniProt Q01726); assay: Melanocortin receptor binding assay, competition with 125I-HP 467, HEK 293 cells expressing hMCR-1; conditions: read-out: MC-1 IC50
T1 construct: expressed in transfected cells; host or cells: HEK 293
Outline: (§1)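 Intact-cell competition binding, 2.5 hr at 37 °C, in PBS/10% calf serum/1 mM CaCl2; hMCR-4 cells at 4×10^3 per tube, hMCR-1 cells at 2×10^4 per tube. Filtration on BSA/CaCl2-soaked GF/B, cold 50 mM Tris pH 7.4 washes, scintillation count.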

MCR-4 = biological target: T2, MCR-4 (Homo sapiens, UniProt P32245); assay: Melanocortin receptor binding assay, competition with 125I-HP 467, HEK 293 cells expressing hMCR-4; conditions: for IC50: read-out: MC-4 IC50
T2 construct: expressed in transfected cells; host or cells: HEK 293
T2 sequence (P32245 whole entry): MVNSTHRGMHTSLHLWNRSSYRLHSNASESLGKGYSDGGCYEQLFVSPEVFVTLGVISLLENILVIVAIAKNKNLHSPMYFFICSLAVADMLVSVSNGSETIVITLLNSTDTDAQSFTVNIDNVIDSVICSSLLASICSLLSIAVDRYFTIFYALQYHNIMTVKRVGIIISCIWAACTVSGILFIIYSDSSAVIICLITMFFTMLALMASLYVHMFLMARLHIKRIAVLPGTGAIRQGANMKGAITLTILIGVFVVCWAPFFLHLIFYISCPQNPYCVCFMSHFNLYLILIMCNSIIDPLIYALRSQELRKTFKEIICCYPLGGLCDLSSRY
Outline: as §1

[1] = TRG 2406 and TRG 2407 libraries, inhibition of binding of 125I-HP 467
[2] = TRG 2408 and TRG 2409 libraries, inhibition of 125I-HP 467 binding

T1 sequence (Q01726 whole entry): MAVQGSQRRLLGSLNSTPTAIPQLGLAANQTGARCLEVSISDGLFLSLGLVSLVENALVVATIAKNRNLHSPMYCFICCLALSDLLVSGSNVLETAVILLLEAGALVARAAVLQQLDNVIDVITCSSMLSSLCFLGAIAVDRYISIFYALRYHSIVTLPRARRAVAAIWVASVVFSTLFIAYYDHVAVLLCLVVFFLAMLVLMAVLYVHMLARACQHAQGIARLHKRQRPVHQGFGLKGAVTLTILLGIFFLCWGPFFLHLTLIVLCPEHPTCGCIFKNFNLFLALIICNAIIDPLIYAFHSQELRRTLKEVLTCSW

Compound	IC50 (MCR-1; [1]) [µM]	MC-4 IC50 (MCR-4; [1])	IC50 (MCR-4; [1]) [µM]	IC50 (MCR-1; [2]) [µM]	IC50 (MCR-4; [2]) [µM]
CNC(CN)CCCCN1Cc2ccccc2C(CNc2cccc(O)c2)C1c1ccc(Cl)cc1Cl (stereo not drawn) [TRG 2407-7]	4.38	no fit	–	–	–
CNC(CN)CCCCN1Cc2ccccc2C(CNc2ccc(Cl)cc2)C1c1ccc(Cl)cc1Cl (stereo not drawn) [TRG 2407-8]	10.9	–	21.2	–	–
CNC(CN)CCCCN1Cc2ccccc2C(CNc2ccc(OC)cc2)C1c1ccc(Cl)cc1Cl (stereo not drawn) [TRG 2407-9]	2.53	–	6.22	–	–
CNC(CN)CCCCN1Cc2ccccc2C(CNCc2ccccc2)C1c1ccc(Cl)cc1Cl (stereo not drawn) [TRG 2407-10]	4.13	–	3.85	–	–
CNC(CN)CCCCN1Cc2ccccc2C(CN(C)Cc2ccccc2)C1c1ccc(Cl)cc1Cl (stereo not drawn) [TRG 2407-11]	5.31	–	6.17	–	–
CNC(CN)CCCCN1Cc2ccccc2C(CNCc2ccccc2Cl)C1c1ccc(Cl)cc1Cl (stereo not drawn) [TRG 2407-12]	2.7	–	3.23	–	–
CNC(CN)CCCCN1Cc2ccccc2C(CNCc2ccccc2C(F)(F)F)C1c1ccc(Cl)cc1Cl (stereo not drawn) [TRG 2407-13]	8.5	–	9.25	–	–
CCOc1ccccc1CNCC1c2ccccc2CN(CCCCC(CN)NC)C1c1ccc(Cl)cc1Cl (stereo not drawn) [TRG 2407-15]	1.2	–	0.78	–	–
CNC(CN)CCCCN1Cc2ccccc2C(CNCc2cccc(OC)c2)C1c1ccc(Cl)cc1Cl (stereo not drawn) [TRG 2407-16]	5.83	–	1.81	–	–
CNC(CN)CCCCN1Cc2ccccc2C(CNCc2cccc(C(F)(F)F)c2)C1c1ccc(Cl)cc1Cl (stereo not drawn) [TRG 2407-17]	10.1	–	9.22	–	–
CNC(CN)CCCCN1Cc2ccccc2C(CNCc2ccc(Cl)cc2)C1c1ccc(Cl)cc1Cl (stereo not drawn) [TRG 2407-18]	3.31	–	2.83	–	–
CNC(CN)CCCCN1Cc2ccccc2C(CNCc2ccc(OC)cc2)C1c1ccc(Cl)cc1Cl (stereo not drawn) [TRG 2407-19]	2.29	–	2.04	–	–
CNC(CN)CCCCN1Cc2ccccc2C(CNCc2ccc(C(F)(F)F)cc2)C1c1ccc(Cl)cc1Cl (stereo not drawn) [TRG 2407-20]	3.78	–	3.49	–	–
CNC(CN)CCCCN1Cc2ccccc2C(CNCCc2ccccc2)C1c1ccc(Cl)cc1Cl (stereo not drawn) [TRG 2407-21]	1.03	–	0.36	–	–
CNC(CN)CCCCN1Cc2ccccc2C(CNCCc2ccc(OC)cc2)C1c1ccc(Cl)cc1Cl (stereo not drawn) [TRG 2407-25]	1.47	–	0.62	–	–
CNC(CN)CCCCN1Cc2ccccc2C(CNCCCc2ccccc2)C1c1ccc(Cl)cc1Cl (stereo not drawn) [TRG 2407-26]	0.7	–	0.83	–	–
CNC(CN)CCCCN1Cc2ccccc2C(CNC2CCCC2)C1c1ccc(Cl)cc1Cl (stereo not drawn) [TRG 2407-27]	0.57	–	0.53	–	–
CNC(CN)CCCCN1Cc2ccccc2C(CNC(C)C)C1c1ccc(-c2ccccc2)cc1 (stereo not drawn) [TRG 2407-28]	0.31	–	3.6	–	–
CNC(CN)CCCCN1Cc2ccccc2C(CNC2CCCCCC2)C1c1ccc(Cl)cc1Cl (stereo not drawn) [TRG 2407-29]	0.64	–	0.77	–	–
CNC(CN)CCCCN1Cc2ccccc2C(CN(C)C2CCCCC2)C1c1ccc(Cl)cc1Cl (stereo not drawn) [TRG 2407-30]	3.15	–	2.1	–	–
CNC(CN)CCCCN1Cc2ccccc2C(CN2CCCCC2)C1c1ccc(Cl)cc1Cl (stereo not drawn) [TRG 2407-32]	3.29	–	2.14	–	–

Compound	IC50 (MCR-1; [1]) [µM]	MC-4 IC50 (MCR-4; [1])	IC50 (MCR-4; [1]) [µM]	IC50 (MCR-1; [2]) [µM]	IC50 (MCR-4; [2]) [µM]
CNC(CN)CCCCN1Cc2ccccc2C(CN2CCOCC2)C1c1ccc(Cl)cc1Cl (stereo not drawn) [TRG 2407-33]	6.9	–	6.02	–	–
CCN(CC)CC1c2ccccc2CN(CCCCC(CN)NC)C1c1ccc(Cl)cc1Cl (stereo not drawn) [TRG 2407-35]	6.52	–	3.41	–	–
C=CCNCC1c2ccccc2CN(CCCCC(CN)NC)C1c1ccc(Cl)cc1Cl (stereo not drawn) [TRG 2407-36]	0.43	–	0.46	–	–
CNC(CN)CCCCN1Cc2ccccc2C(CNC(C)C)C1c1ccc(Cl)cc1Cl (stereo not drawn) [TRG 2407-37]	0.91	–	0.54	–	–
CNC(CN)CCCCN1Cc2ccccc2C(CO)C1c1ccc(Cl)cc1Cl (stereo not drawn) [TRG 2407-40]	4.74	–	4.94	–	–
CCNc1ccc(C2C(CNc3ccccc3)c3ccccc3CN2CCCCC(CN)NC)cc1 (stereo not drawn) [TRG 2407-41]	5.87	–	17	–	–
CCNc1ccc(C2C(CN(C)c3ccccc3)c3ccccc3CN2CCCCC(CN)NC)cc1 (stereo not drawn) [TRG 2407-42]	4.23	–	7.9	–	–
CCNc1ccc(C2C(CNc3ccccc3Cl)c3ccccc3CN2CCCCC(CN)NC)cc1 (stereo not drawn) [TRG 2407-43]	7.07	–	11.2	–	–
CCNc1ccc(C2C(CNc3ccccc3OC)c3ccccc3CN2CCCCC(CN)NC)cc1 (stereo not drawn) [TRG 2407-44]	1.15	–	10.4	–	–
CCNc1ccc(C2C(CNc3cccc(Cl)c3)c3ccccc3CN2CCCCC(CN)NC)cc1 (stereo not drawn) [TRG 2407-45]	7.91	–	11	–	–
CCNc1ccc(C2C(CNc3cccc(OCC)c3)c3ccccc3CN2CCCCC(CN)NC)cc1 (stereo not drawn) [TRG 2407-46]	1.63	–	16.4	–	–
CCNc1ccc(C2C(CNc3ccc(Cl)cc3)c3ccccc3CN2CCCCC(CN)NC)cc1 (stereo not drawn) [TRG 2407-48]	4.48	–	10.8	–	–
CCNc1ccc(C2C(CNc3ccc(OC)cc3)c3ccccc3CN2CCCCC(CN)NC)cc1 (stereo not drawn) [TRG 2407-49]	2.36	no fit	–	–	–
CCNc1ccc(C2C(CNCc3ccccc3)c3ccccc3CN2CCCCC(CN)NC)cc1 (stereo not drawn) [TRG 2407-50]	0.35	–	9.1	–	–
CCNc1ccc(C2C(CN(C)Cc3ccccc3)c3ccccc3CN2CCCCC(CN)NC)cc1 (stereo not drawn) [TRG 2407-51]	2.16	–	13.5	–	–
CCNc1ccc(C2C(CNCc3ccccc3Cl)c3ccccc3CN2CCCCC(CN)NC)cc1 (stereo not drawn) [TRG 2407-52]	0.44	–	1.56	–	–
CCNc1ccc(C2C(CNCc3ccccc3C(F)(F)F)c3ccccc3CN2CCCCC(CN)NC)cc1 (stereo not drawn) [TRG 2407-53]	1.27	–	0.79	–	–
CCNc1ccc(C2C(CNCc3ccccc3OCC)c3ccccc3CN2CCCCC(CN)NC)cc1 (stereo not drawn) [TRG 2407-55]	0.19	–	14.9	–	–
CCNc1ccc(C2C(CNC3CCCCC3)c3ccccc3CN2CCCCC(N)CN)cc1 (stereo not drawn) [TRG 2408-5]	–	–	–	1.66	31.8
CCNc1ccc(C2C(CNC3CCCCC3)c3ccccc3CN2CCCC[C@@H](CN)NCCc2ccccc2)cc1 (stereo partly drawn) [TRG 2408-6]	–	–	–	0.61	7.16
CCNc1ccc(C2C(CNC3CCCCC3)c3ccccc3CN2CCCCC(CN)NCCNC)cc1 (stereo not drawn) [TRG 2408-8]	–	–	–	2.31	43.3

Compound	IC50 (MCR-1; [1]) [µM]	MC-4 IC50 (MCR-4; [1])	IC50 (MCR-4; [1]) [µM]	IC50 (MCR-1; [2]) [µM]	IC50 (MCR-4; [2]) [µM]
NCC(N)CCCCN1Cc2ccccc2C(CNC2CCCCC2)C1c1ccc(Cl)cc1Cl (stereo not drawn) [TRG 2408-13]	–	–	–	1.72	1.58
NCC(CCCCN1Cc2ccccc2C(CNC2CCCCC2)C1c1ccc(Cl)cc1Cl)NCCc1ccccc1 (stereo not drawn) [TRG 2408-14]	–	–	–	2.11	5.52
NCCNC(CN)CCCCN1Cc2ccccc2C(CNC2CCCCC2)C1c1ccc(Cl)cc1Cl (stereo not drawn) [TRG 2408-15]	–	–	–	0.76	6.3
CNCCNC(CN)CCCCN1Cc2ccccc2C(CNC2CCCCC2)C1c1ccc(Cl)cc1Cl (stereo not drawn) [TRG 2408-16]	–	–	–	1.79	6.11
NCC(N)CCCCN1Cc2ccccc2C(CNC2CCCCC2)C1c1ccc(-c2ccccc2)cc1 (stereo not drawn) [TRG 2408-21]	–	–	–	1.73	17.4
NCC(CCCCN1Cc2ccccc2C(CNC2CCCCC2)C1c1ccc(-c2ccccc2)cc1)NCCc1ccccc1 (stereo not drawn) [TRG 2408-22]	–	–	–	2.77	11.4
NCCNC(CN)CCCCN1Cc2ccccc2C(CNC2CCCCC2)C1c1ccc(-c2ccccc2)cc1 (stereo not drawn) [TRG 2408-23]	–	–	–	0.82	20.5
CCNc1ccc(C2C(CNC3CCCCC3)c3ccccc3CN2CCCCC(CN)NCCc2ccccc2)cc1 (stereo not drawn) [TRG 2408-32]	–	–	–	1.15	9.44
CCNc1ccc(C2C(CNC3CCCCC3)c3ccccc3CN2CCCCC(CN)NCCN)cc1 (stereo not drawn) [TRG 2408-33]	–	–	–	1.06	38.7
CCNc1ccc(C2C(CNC3CCCCC3)c3ccccc3CN2CCCCC(CN)NCCNC)cc1 (stereo not drawn) [TRG 2408-34]	–	–	–	2.14	33.6
CN[C@@H](CN)CCCCN1Cc2ccccc2C(CNC2CCCCC2)C1c1ccc(Cl)cc1Cl (stereo partly drawn) [TRG 2408-40]	–	–	–	2.43	8.28
NC[C@H](N)CCCCN1Cc2ccccc2C(CNC2CCCCC2)C1c1ccc(Cl)cc1Cl (stereo partly drawn) [TRG 2408-41]	–	–	–	1.03	3.88
NC[C@@H](CCCCN1Cc2ccccc2C(CNC2CCCCC2)C1c1ccc(Cl)cc1Cl)NCCc1ccccc1 (stereo partly drawn) [TRG 2408-42]	–	–	–	1.93	4.24
NCCNC(CN)CCCCN1Cc2ccccc2C(CNC2CCCCC2)C1c1ccc(Cl)cc1Cl (stereo not drawn) [TRG 2408-43]	–	–	–	1.63	7.49
CNCCNC(CN)CCCCN1Cc2ccccc2C(CNC2CCCCC2)C1c1ccc(Cl)cc1Cl (stereo not drawn) [TRG 2408-44]	–	–	–	1.27	5.06
CNC(CN)CCCCN1Cc2ccccc2C(CNC2CCCCC2)C1c1ccc(-c2ccccc2)cc1 (stereo not drawn) [TRG 2408-50]	–	–	–	1.55	13.3
NC[C@H](N)CCCCN1Cc2ccccc2C(CNC2CCCCC2)C1c1ccc(-c2ccccc2)cc1 (stereo partly drawn) [TRG 2408-51]	–	–	–	3.19	29.3
NCC(CCCCN1Cc2ccccc2C(CNC2CCCCC2)C1c1ccc(-c2ccccc2)cc1)NCCc1ccccc1 (stereo not drawn) [TRG 2408-52]	–	–	–	3.69	12.3
NCCNC(CN)CCCCN1Cc2ccccc2C(CNC2CCCCC2)C1c1ccc(-c2ccccc2)cc1 (stereo not drawn) [TRG 2408-53]	–	–	–	1	14.8
CNCCN[C@@H](CN)CCCCN1Cc2ccccc2C(CNC2CCCCC2)C1c1ccc(-c2ccccc2)cc1 (stereo partly drawn) [TRG 2408-54]	–	–	–	0.61	26.8
CCNc1ccc(C2C(CNC3CCCCC3)c3ccccc3CN2CCCC(CN)NC)cc1 (stereo not drawn) [TRG 2408-60]	–	–	–	0.69	20.7

Source: patent US6608082B1, “Treatment of erectile dysfunction using isoquinoline compound melanocortin receptor ligands” (Lion Bioscience AG, priority 1998, dated 2003)
